Patent EP4650362A1, “NEUROPROTECTIVE PSD-95 POLYPEPTIDE INHIBITOR AND USE THEREOF” (Beijing Tuo Jie Biopharmaceutical Co. Ltd., priority 2023, dated 2024)
No end group written: not given here.

Columns and labels:
human PSD95-PDZ2 = biological target: T1, human PSD95-PDZ2 (Homo sapiens, UniProt P78352); test: binding ELISA with Biotin-PDZ2
T1 construct: PDZ2 (155-249, the Flag-His-Avitag-TEVsite tag is italicized); made in house; host or cells: E. coli BL21-DE3 (PET vector)

rabbit whole blood = test: hemolysis risk test in rabbit whole blood; type: cell-based; details: concentration range of 1 to 50 µM
Protocol: Preparation of red blood cell suspension: 100 µL of fresh whole blood was collected, and 900 µL of 1× PBS solution was then added. The mixture was shaken on a plate shaker at 30 rpm for 5 min and then centrifuged at 1000 g for 5 min, and the supernatant was discarded. The above washing step was repeated until the supernatant no longer appeared red. The suspension was set aside for later use.
Preparation of test polypeptide solutions: An appropriate amount of 1× PBS solution was added to a powdered polypeptide, and the polypeptide was dissolved to form a standard stock solution. The stock solution was then diluted with 1× PBS to form test solutions with concentrations of 1, 3, 10, 30, 100, and 300 µg/mL, and two replicate wells were set for each concentration. Meanwhile, blank 1× PBS was used as a negative control, and a 1× PBS solution containing 0.1% Triton X-100 was used as a positive control.
Incubation: A test solution (500 µL) was added to the red blood cell suspension, and then the mixture was well shaken on a plate shaker at 30 rpm for 5 min, incubated at 37 °C for 1 h, and centrifuged at 1000 g for 5 min.
100 µL of the supernatant was transferred to a single well of a microplate. The absorbance at 540 nm was measured using a SpectraMax M5 microplate reader, and data analysis was performed using GraphPad Prism 9. The hemolysis rate (%) was calculated using the formula: (test sample absorbance - negative control absorbance) / (positive control absorbance - negative control absorbance) × 100%. A rate of less than 5% indicates the absence of hemolysis, while a rate of greater than 5% indicates the presence of hemolysis. Table 3. Testing of the hemolysis risk of the polypeptide compound
A method similar to that in section 3.3.2 was adopted, with the difference being that this test example used fresh rabbit whole blood instead.

[1] = plasma stability test, human plasma; type: in vitro ADME; details: Human plasma, 25 µM
Protocol: (§1) Solution preparation: An appropriate amount of a test polypeptide compound was weighed out and dissolved in an appropriate amount of 1× PBS to form a 1 mM test solution. NA-1 and NoNO42 were used as positive drugs, propantheline bromide was used as a human plasma test control, and lovastatin was used as a rat plasma test control. Plasma stability test: 12.5 µL of the 1 mM test solution was added to a 495 µL pre-incubated plasma sample. […] For each incubation time, two parallel samples were set. Subsequently, 200 µL of stop solution was added to stop the incubation, and the mixtures were vortexed for 5 min. Then the mixtures were centrifuged at 10,000 rpm at 4 °C for 10 min to remove the protein in the sample, and 70 µL of the supernatant was transferred to a new 96-well plate (70 µL of water was added to each well beforehand) and well mixed. […] Sample pretreatment: […] LC-MS analysis: […] (2) Mass-spectrometric conditions: The mass spectrometry analysis used an electrospray ionization (ESI) source, a positive ion analysis mode, and a multi-reaction monitoring (MRM) scan mode. […] The plasma stability of the polypeptide compound

[2] = plasma stability test, rat plasma; type: in vitro ADME; details: Rat plasma, 25 µM
Protocol: as §1

[3] = plasma stability test with alteplase added, human plasma; type: in vitro ADME; details: Human plasma + rt-PA (50 µg/mL alteplase), 25 µM
Protocol: as §1, with “mixed. Plasma stability test with alteplase added: An appropriate amount of solid alteplase was weighed out, and an appropriate volume of water was added. The mixture was vortexed to dissolve alteplase, forming a 1 mg/mL solution of alteplase. 250 µL of the 1 mg/mL solution of alteplase was added to 4750 µL of plasma to form a plasma sample containing 50 µg/mL alteplase. The other procedures were the same as in the aforementioned "plasma stability test", with the difference being that the plasma sample containing 50 µg/mL alteplase was used instead of plasma.” for “mixed.”

T1 sequence (P78352 155-249): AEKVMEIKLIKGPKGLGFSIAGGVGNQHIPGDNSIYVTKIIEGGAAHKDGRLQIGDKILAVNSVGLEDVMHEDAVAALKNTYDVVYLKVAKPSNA

YGRKKRRQRRRKLSSIESDV [NA-1, YGRKKRRQR RRKLSSIESDV, reference compound]
EC50 (human PSD95-PDZ2): 83 nM | hemolysis rates (rabbit whole blood): less than 5% | Relative remaining compound content (%) ([1]; 0min (standard 100%)): 100.0% | remaining at 10 min, 25 µM ([1]; 10min, read-out: Relative remaining compound content (%)): 76.4% | remaining at 20 min, 25 µM ([1]; 20min, read-out: Relative remaining compound content (%)): 74.9% | remaining at 0.5 h, 25 µM ([1]; 30min, read-out: Relative remaining compound content (%)): 70.6% | remaining at 1 h, 25 µM ([1]; 60min, read-out: Relative remaining compound content (%)): 53.9% | remaining at 2 h, 25 µM ([1]; 120min, read-out: Relative remaining compound content (%)): 25.1% | Relative remaining compound content (%) ([2]; 0min (standard 100%)): 100.0% | Relative remaining compound content (%) ([2]; 10min): 103.7% | Relative remaining compound content (%) ([2]; 20min): 77.5% | Relative remaining compound content (%) ([2]; 30min): 69.5% | Relative remaining compound content (%) ([2]; 60min): 54.4% | Relative remaining compound content (%) ([2]; 120min): 42.1% | remaining at 10 min, 25 µM ([2]; rat, plasma, 10min, read-out: Relative remaining compound content (%)): 94.1% | remaining at 20 min, 25 µM ([2]; rat, plasma, 20min, read-out: Relative remaining compound content (%)): 83% | remaining at 0.5 h, 25 µM ([2]; rat, plasma, 30min, read-out: Relative remaining compound content (%)): 73.3% | remaining at 1 h, 25 µM ([2]; rat, plasma, 60min, read-out: Relative remaining compound content (%)): 57% | remaining at 2 h, 25 µM ([2]; rat, plasma, 120min, read-out: Relative remaining compound content (%)): 28.4% | Relative remaining compound content (%) ([3]; 0min (standard 100%)): 100.0% | Relative remaining compound content (%) ([3]; 10min): 23.9% | Relative remaining compound content (%) ([3]; 20min): 7.6% | Relative remaining compound content (%) ([3]; 30min): 3.4% | Relative remaining compound content (%) ([3]; 60min): 0.9% | Relative remaining compound content (%) ([3]; 120min): 0.3%
